Source: the NIST ThermoML archive (doi:10.1016/j.jct.2007.04.002)
Numbers after ± are expanded uncertainties.

What was measured:
[1] = 101.33 kPa, Liquid, Not reported.
[2] = excess molar enthalpy (molar enthalpy of mixing); xn = mol fraction of the nth substance listed; conditions: 101 kPa, Liquid, Calvet calorimetry

CCCCCC(C)C [2-methylheptane]
[1]
Conditions | molar volume [m3/mol]
288.05 K | 0.0001626 ± 3.3e-07
298.15 K | 0.0001636 ± 3.3e-07

CCCCCC(C)C [2-methylheptane] + FC(F)(F)C(F)(F)C(F)(F)C(F)(F)C(F)(F)C(F)(F)F
excess molar enthalpy [kcal/mol], [2]
Conditions | 288.05 K | 298.15 K
x2 = 0 | 0 ± 0.00956 | 0 ± 0.00956
x2 = 0.05 | 0.124 ± 0.00956 | 0.129 ± 0.00956
x2 = 0.1 | 0.223 ± 0.0098 | 0.231 ± 0.0098
x2 = 0.15 | 0.3 ± 0.0098 | 0.313 ± 0.0098
x2 = 0.2 | 0.359 ± 0.01 | 0.376 ± 0.01
x2 = 0.25 | 0.404 ± 0.01 | 0.425 ± 0.01
x2 = 0.3 | 0.438 ± 0.01 | 0.462 ± 0.0103
x2 = 0.35 | 0.462 ± 0.0103 | 0.488 ± 0.0103
x2 = 0.4 | 0.478 ± 0.0103 | 0.506 ± 0.0103
x2 = 0.45 | 0.488 ± 0.0103 | 0.516 ± 0.0103
x2 = 0.5 | 0.491 ± 0.0103 | 0.52 ± 0.0103
x2 = 0.55 | 0.488 ± 0.0103 | 0.516 ± 0.0103
x2 = 0.6 | 0.478 ± 0.0103 | 0.505 ± 0.0103
x2 = 0.65 | 0.461 ± 0.0103 | 0.487 ± 0.0103
x2 = 0.7 | 0.436 ± 0.01 | 0.46 ± 0.01
x2 = 0.75 | 0.401 ± 0.01 | 0.422 ± 0.01
x2 = 0.8 | 0.354 ± 0.01 | 0.372 ± 0.01
x2 = 0.85 | 0.293 ± 0.0098 | 0.307 ± 0.0098
x2 = 0.9 | 0.216 ± 0.0098 | 0.226 ± 0.0098
x2 = 0.95 | 0.119 ± 0.00956 | 0.124 ± 0.00956

C1CCCCC1 [cyclohexane]
Conditions | molar volume [m3/mol]
[1], 298.15 K | 0.0001086 ± 2.2e-07

C1CCCCC1 [cyclohexane] + FC(F)(F)C(F)(F)C(F)(F)C(F)(F)C(F)(F)C(F)(F)F
Conditions | excess molar enthalpy [kcal/mol]
[2], 298.15 K, x2 = 0 | 0 ± 0.00956

CCCCCCC [heptane] + FC(F)(F)C(F)(F)C(F)(F)C(F)(F)C(F)(F)C(F)(F)F
Conditions | excess molar enthalpy [kcal/mol]
[2], 298.15 K, x2 = 0 | 0 ± 0.00956

FC(F)(F)C(F)(F)C(F)(F)C(F)(F)C(F)(F)C(F)(F)C(F)(F)F [hexadecafluoroheptane] + CCCCCC
[2], 298.15 K
Conditions | excess molar enthalpy [kcal/mol]
x1 = 0.05 | 0.15 ± 0.00956
x1 = 0.1 | 0.258 ± 0.0098
x1 = 0.15 | 0.335 ± 0.0098
x1 = 0.2 | 0.39 ± 0.01
x1 = 0.25 | 0.429 ± 0.01
x1 = 0.3 | 0.456 ± 0.01
x1 = 0.35 | 0.474 ± 0.0103
x1 = 0.4 | 0.487 ± 0.0103
x1 = 0.45 | 0.495 ± 0.0103
x1 = 0.5 | 0.497 ± 0.0103
x1 = 0.55 | 0.495 ± 0.0103
x1 = 0.6 | 0.485 ± 0.0103
x1 = 0.65 | 0.467 ± 0.0103
x1 = 0.7 | 0.439 ± 0.01
x1 = 0.75 | 0.4 ± 0.01
x1 = 0.8 | 0.348 ± 0.0098
x1 = 0.85 | 0.281 ± 0.0098
x1 = 0.9 | 0.201 ± 0.0098
x1 = 0.95 | 0.107 ± 0.00956
x1 = 1 | 0 ± 0.00956

CCCCCC [hexane] + FC(F)(F)C(F)(F)C(F)(F)C(F)(F)C(F)(F)C(F)(F)C(F)(F)C(F)(F)F
Conditions | excess molar enthalpy [kcal/mol]
[2], 298.15 K, x2 = 0 | 0 ± 0.00956

CCCCCC [hexane] + FC(F)(F)C(F)(F)C(F)(F)C(F)(F)C(F)(F)C(F)(F)C(F)(F)F
Conditions | excess molar enthalpy [kcal/mol]
[2], 298.15 K, x2 = 0 | 0 ± 0.00956

CCCCCC [hexane] + FC(F)(F)C(F)(F)C(F)(F)C(F)(F)C(F)(F)C(F)(F)F
Conditions | excess molar enthalpy [kcal/mol]
[2], 298.15 K, x2 = 0 | 0 ± 0.00956

CCCCCC [hexane] + FC(F)(F)C(F)(F)C(F)(F)C(F)(F)C(F)(F)F
Conditions | excess molar enthalpy [kcal/mol]
[2], 293.15 K, x2 = 0 | 0 ± 0.00956

FC(F)(F)C(F)(F)C(F)(F)C(F)(F)C(F)(F)C(F)(F)C(F)(F)C(F)(F)F [octadecafluorooctane] + CCCCCC
[2], 298.15 K
Conditions | excess molar enthalpy [kcal/mol]
x1 = 0.05 | 0.183 ± 0.00956
x1 = 0.1 | 0.303 ± 0.0098
x1 = 0.15 | 0.379 ± 0.01
x1 = 0.2 | 0.422 ± 0.01
x1 = 0.25 | 0.445 ± 0.01
x1 = 0.3 | 0.455 ± 0.01
x1 = 0.35 | 0.456 ± 0.01
x1 = 0.4 | 0.453 ± 0.01
x1 = 0.45 | 0.448 ± 0.01
x1 = 0.5 | 0.44 ± 0.01
x1 = 0.55 | 0.43 ± 0.01
x1 = 0.6 | 0.415 ± 0.01
x1 = 0.65 | 0.394 ± 0.01
x1 = 0.7 | 0.366 ± 0.01
x1 = 0.75 | 0.327 ± 0.0098
x1 = 0.8 | 0.279 ± 0.0098
x1 = 0.85 | 0.22 ± 0.0098
x1 = 0.9 | 0.152 ± 0.00956
x1 = 0.95 | 0.0767 ± 0.00956
x1 = 1 | 0 ± 0.00956

CCCCCCCC [octane] + FC(F)(F)C(F)(F)C(F)(F)C(F)(F)C(F)(F)C(F)(F)F
Conditions | excess molar enthalpy [kcal/mol]
[2], 298.15 K, x2 = 0 | 0 ± 0.00956

CCCCC [pentane] + FC(F)(F)C(F)(F)C(F)(F)C(F)(F)C(F)(F)C(F)(F)F
Conditions | excess molar enthalpy [kcal/mol]
[2], 293.15 K, x2 = 0 | 0 ± 0.00956

FC(F)(F)C(F)(F)C(F)(F)C(F)(F)C(F)(F)C(F)(F)F [perfluorohexane]
Conditions | molar volume [m3/mol]
[1], 288.05 K | 0.0001982 ± 7e-07

FC(F)(F)C(F)(F)C(F)(F)C(F)(F)C(F)(F)C(F)(F)F [perfluorohexane] + C1CCCCC1
[2], 298.15 K
Conditions | excess molar enthalpy [kcal/mol]
x1 = 0.05 | 0.177 ± 0.00956
x1 = 0.1 | 0.301 ± 0.0098
x1 = 0.15 | 0.385 ± 0.01
x1 = 0.2 | 0.44 ± 0.01
x1 = 0.25 | 0.475 ± 0.0103
x1 = 0.3 | 0.498 ± 0.0103
x1 = 0.35 | 0.513 ± 0.0103
x1 = 0.4 | 0.522 ± 0.0103
x1 = 0.45 | 0.528 ± 0.0103
x1 = 0.5 | 0.53 ± 0.0103
x1 = 0.55 | 0.528 ± 0.0103
x1 = 0.6 | 0.519 ± 0.0103
x1 = 0.65 | 0.503 ± 0.0103
x1 = 0.7 | 0.476 ± 0.0103
x1 = 0.75 | 0.436 ± 0.01
x1 = 0.8 | 0.382 ± 0.01
x1 = 0.85 | 0.311 ± 0.0098
x1 = 0.9 | 0.224 ± 0.0098
x1 = 0.95 | 0.12 ± 0.00956
x1 = 1 | 0 ± 0.00956

FC(F)(F)C(F)(F)C(F)(F)C(F)(F)C(F)(F)C(F)(F)F [perfluorohexane] + CCCCC
[2], 293.15 K
Conditions | excess molar enthalpy [kcal/mol]
x1 = 0.05 | 0.127 ± 0.00956
x1 = 0.1 | 0.225 ± 0.0098
x1 = 0.15 | 0.3 ± 0.0098
x1 = 0.2 | 0.357 ± 0.01
x1 = 0.25 | 0.399 ± 0.01
x1 = 0.3 | 0.431 ± 0.01
x1 = 0.35 | 0.453 ± 0.01
x1 = 0.4 | 0.467 ± 0.0103
x1 = 0.45 | 0.475 ± 0.0103
x1 = 0.5 | 0.476 ± 0.0103
x1 = 0.55 | 0.47 ± 0.0103
x1 = 0.6 | 0.457 ± 0.01
x1 = 0.65 | 0.435 ± 0.01
x1 = 0.7 | 0.405 ± 0.01
x1 = 0.75 | 0.365 ± 0.01
x1 = 0.8 | 0.315 ± 0.0098
x1 = 0.85 | 0.253 ± 0.0098
x1 = 0.9 | 0.18 ± 0.00956
x1 = 0.95 | 0.0954 ± 0.00956
x1 = 1 | 0 ± 0.00956

FC(F)(F)C(F)(F)C(F)(F)C(F)(F)C(F)(F)C(F)(F)F [perfluorohexane] + CCCCCC
[2], 298.15 K
Conditions | excess molar enthalpy [kcal/mol]
x1 = 0.05 | 0.133 ± 0.00956
x1 = 0.1 | 0.235 ± 0.0098
x1 = 0.15 | 0.313 ± 0.0098
x1 = 0.2 | 0.372 ± 0.01
x1 = 0.25 | 0.416 ± 0.01
x1 = 0.3 | 0.45 ± 0.01
x1 = 0.35 | 0.473 ± 0.0103
x1 = 0.4 | 0.49 ± 0.0103
x1 = 0.45 | 0.5 ± 0.0103
x1 = 0.5 | 0.503 ± 0.0103
x1 = 0.55 | 0.5 ± 0.0103
x1 = 0.6 | 0.489 ± 0.0103
x1 = 0.65 | 0.469 ± 0.0103
x1 = 0.7 | 0.441 ± 0.01
x1 = 0.75 | 0.401 ± 0.01
x1 = 0.8 | 0.35 ± 0.01
x1 = 0.85 | 0.285 ± 0.0098
x1 = 0.9 | 0.205 ± 0.0098
x1 = 0.95 | 0.11 ± 0.00956
x1 = 1 | 0 ± 0.00956

FC(F)(F)C(F)(F)C(F)(F)C(F)(F)C(F)(F)C(F)(F)F [perfluorohexane] + CCCCCC(C)C
[2], x1 = 1
Conditions | excess molar enthalpy [kcal/mol]
288.05 K | 0 ± 0.00956
298.15 K | 0 ± 0.00956

FC(F)(F)C(F)(F)C(F)(F)C(F)(F)C(F)(F)C(F)(F)F [perfluorohexane] + CCCCCCC
[2], 298.15 K
Conditions | excess molar enthalpy [kcal/mol]
x1 = 0.05 | 0.135 ± 0.00956
x1 = 0.1 | 0.24 ± 0.0098
x1 = 0.15 | 0.321 ± 0.0098
x1 = 0.2 | 0.382 ± 0.01
x1 = 0.25 | 0.429 ± 0.01
x1 = 0.3 | 0.463 ± 0.0103
x1 = 0.35 | 0.487 ± 0.0103
x1 = 0.4 | 0.504 ± 0.0103
x1 = 0.45 | 0.513 ± 0.0103
x1 = 0.5 | 0.516 ± 0.0103
x1 = 0.55 | 0.513 ± 0.0103
x1 = 0.6 | 0.503 ± 0.0103
x1 = 0.65 | 0.485 ± 0.0103
x1 = 0.7 | 0.459 ± 0.01
x1 = 0.75 | 0.421 ± 0.01
x1 = 0.8 | 0.371 ± 0.01
x1 = 0.85 | 0.307 ± 0.0098
x1 = 0.9 | 0.225 ± 0.0098
x1 = 0.95 | 0.124 ± 0.00956
x1 = 1 | 0 ± 0.00956

FC(F)(F)C(F)(F)C(F)(F)C(F)(F)C(F)(F)C(F)(F)F [perfluorohexane] + CCCCCCCC
[2], 298.15 K
Conditions | excess molar enthalpy [kcal/mol]
x1 = 0.05 | 0.137 ± 0.00956
x1 = 0.1 | 0.24 ± 0.0098
x1 = 0.15 | 0.315 ± 0.0098
x1 = 0.2 | 0.368 ± 0.01
x1 = 0.25 | 0.404 ± 0.01
x1 = 0.3 | 0.428 ± 0.01
x1 = 0.35 | 0.443 ± 0.01
x1 = 0.4 | 0.452 ± 0.01
x1 = 0.45 | 0.457 ± 0.01
x1 = 0.5 | 0.458 ± 0.01
x1 = 0.55 | 0.457 ± 0.01
x1 = 0.6 | 0.452 ± 0.01
x1 = 0.65 | 0.442 ± 0.01
x1 = 0.7 | 0.426 ± 0.01
x1 = 0.75 | 0.401 ± 0.01
x1 = 0.8 | 0.363 ± 0.01
x1 = 0.85 | 0.309 ± 0.0098
x1 = 0.9 | 0.234 ± 0.0098
x1 = 0.95 | 0.133 ± 0.00956
x1 = 1 | 0 ± 0.00956

FC(F)(F)C(F)(F)C(F)(F)C(F)(F)C(F)(F)F [perfluoropentane] + CCCCCC
[2], 293.15 K
Conditions | excess molar enthalpy [kcal/mol]
x1 = 0.05 | 0.127 ± 0.00956
x1 = 0.1 | 0.224 ± 0.0098
x1 = 0.15 | 0.298 ± 0.0098
x1 = 0.2 | 0.352 ± 0.01
x1 = 0.25 | 0.392 ± 0.01
x1 = 0.3 | 0.42 ± 0.01
x1 = 0.35 | 0.439 ± 0.01
x1 = 0.4 | 0.451 ± 0.01
x1 = 0.45 | 0.456 ± 0.01
x1 = 0.5 | 0.455 ± 0.01
x1 = 0.55 | 0.449 ± 0.01
x1 = 0.6 | 0.436 ± 0.01
x1 = 0.65 | 0.416 ± 0.01
x1 = 0.7 | 0.388 ± 0.01
x1 = 0.75 | 0.352 ± 0.01
x1 = 0.8 | 0.305 ± 0.0098
x1 = 0.85 | 0.248 ± 0.0098
x1 = 0.9 | 0.178 ± 0.00956
x1 = 0.95 | 0.0956 ± 0.00956
x1 = 1 | 0 ± 0.00956
